From ChEMBL document CHEMBL4184101, “Hybrid peptide-small molecule oxytocin analogs are potent and selective agonists of the oxytocin receptor” (Bioorg Med Chem Lett, 2018)
*1 amine or outer side, *2 acyl side, *3 side chain or, on linkers, in order; H or OH if unused. Where a SMILES comes first, the peptide text is derived from it. Bridges are numbered along the chain shown (N, C = ends). [ ]: non-standard residue; d: D form. The star is where a group is joined. X3 = c1ccc(OC[C@@H]2CCCN2*)cc1; X5 = c1ccc(NC[C@@H]2CCCN2*)cc1; X8 = c1ccc(CC[C@@H]2CCCN2*)cc1; Cysteamide = C(CS[*:3])N[*:1]; X1 = c1ccc([C@@H]2CCCN2*)nc1; X6 = Cc1nnc([C@@H]2CCCN2*)o1; X9 = C1CCN(C2CCN(*)CC2)C1; Pyrrolidide = C1CCN(*)C1; X4 = COC[C@@H]1CCCN1*; X10 = CN1CCCN(*)CC1; X2 = C[C@H]1CCCN1*; X7 = CC(C)CCN(C)*; Mpa = O=C(O)CCS

What was measured:
Vasopressin V1a receptor = Vasopressin V1a receptor (Homo sapiens, UniProt P37288); assay: Agonist activity at vasopressin 1a receptor (unknown origin); format: functional
[1] = Stability in human liver microsomes by LC/MS/MS analysis; format: ADME, microsome; conditions: read-out: Stability
[2] = biological target: T1, Oxytocin receptor (Homo sapiens) (UniProt P30559); assay: Agonist activity at human OTR expressed in CHO cells assessed as increase in calcium flux after 60 to 120 mins by fluo-4 dye based FLIPR assay relative to control; format: functional, cell-based
T1 sequence (whole entry): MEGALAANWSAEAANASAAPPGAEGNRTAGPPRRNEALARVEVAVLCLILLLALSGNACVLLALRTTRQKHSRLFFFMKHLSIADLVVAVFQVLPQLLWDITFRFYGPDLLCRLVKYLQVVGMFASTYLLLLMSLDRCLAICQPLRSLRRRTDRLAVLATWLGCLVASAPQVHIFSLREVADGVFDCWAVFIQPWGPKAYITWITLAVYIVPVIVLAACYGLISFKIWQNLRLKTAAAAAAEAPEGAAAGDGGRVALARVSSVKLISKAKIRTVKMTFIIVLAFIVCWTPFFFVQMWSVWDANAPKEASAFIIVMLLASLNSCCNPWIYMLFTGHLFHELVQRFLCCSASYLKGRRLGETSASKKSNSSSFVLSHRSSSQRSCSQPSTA

Oxytocin receptor = biological target: T2, Oxytocin receptor (Homo sapiens, UniProt P30559); assay: Agonist activity at human OTR expressed in CHO cells assessed as increase in calcium flux after 60 to 120 mins by fluo-4 dye based FLIPR assay; format: functional, cell-based
T2 sequence (P30559 whole entry): T1 sequence (whole entry)

Vasopressin V1a receptor, sequence (P37288 whole entry): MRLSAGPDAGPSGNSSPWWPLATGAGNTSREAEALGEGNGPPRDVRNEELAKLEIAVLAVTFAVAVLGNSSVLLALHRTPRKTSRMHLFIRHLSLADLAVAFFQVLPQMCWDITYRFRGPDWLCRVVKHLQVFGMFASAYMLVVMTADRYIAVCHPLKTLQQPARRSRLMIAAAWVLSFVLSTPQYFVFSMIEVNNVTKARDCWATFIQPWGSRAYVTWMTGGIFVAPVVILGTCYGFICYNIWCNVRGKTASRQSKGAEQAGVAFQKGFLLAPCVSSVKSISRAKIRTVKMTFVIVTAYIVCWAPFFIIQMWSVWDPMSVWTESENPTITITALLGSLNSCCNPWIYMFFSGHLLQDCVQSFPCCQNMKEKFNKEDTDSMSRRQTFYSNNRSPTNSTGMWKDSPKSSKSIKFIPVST

SMILES	EC50 (Vasopressin V1a receptor) [nM]	CLint scaled [1] [mL/min/kg]	Efficacy [2] [%]	EC50 (Oxytocin receptor) [nM]
CC[C@H](C)[C@@H]1NC(=O)[C@H](Cc2ccc(O)cc2)NC(=O)CCSSC[C@@H](C(=O)N2CCC[C@H]2C(N)=O)NC(=O)[C@H](CC(N)=O)NC(=O)[C@H](CCC(N)=O)NC1=O	> 1000	< 8	89	1.3
CC[C@H](C)[C@@H]1NC(=O)[C@H](Cc2ccc(O)cc2)NC(=O)CCSSC[C@@H](C(=O)N2CCC[C@H]2C(=O)N[C@@H](CC(C)C)C(N)=O)NC(=O)[C@H](CC(N)=O)NC(=O)[C@H](CCC(N)=O)NC1=O	> 1000	< 8	82	1.8
CC[C@H](C)[C@@H]1NC(=O)[C@H](Cc2ccc(O)cc2)NC(=O)CCSSC[C@@H](C(N)=O)NC(=O)[C@H](CC(N)=O)NC(=O)[C@H](CCC(N)=O)NC1=O	> 1000	< 8	90	5.4
CC[C@H](C)[C@@H]1NC(=O)[C@H](Cc2ccc(O)cc2)NC(=O)CCSSC[C@@H](C(=O)N2CCC[C@H]2C(=O)N[C@@H](CC(C)C)C(=O)NCC(N)=O)NC(=O)[C@H](CC(N)=O)NC(=O)[C@H](CCC(N)=O)NC1=O		< 8	106	
CC[C@H](C)[C@@H]1NC(=O)[C@H](Cc2ccc(O)cc2)NC(=O)CCSSCCNC(=O)[C@H](CC(N)=O)NC(=O)[C@H](CCC(N)=O)NC1=O ([Mpa]YIQN-Cysteamide; disulfide 1-C)	> 1000	< 8	67	28
CC[C@H](C)[C@@H]1NC(=O)[C@H](Cc2ccc(O)cc2)NC(=O)CCSSC[C@@H](C(=O)N2CCCC2)NC(=O)[C@H](CC(N)=O)NC(=O)[C@H](CCC(N)=O)NC1=O ([Mpa]YIQNC-Pyrrolidide; disulfide 1-6)	> 1000	< 8	97	0.51
CC[C@H](C)[C@@H]1NC(=O)[C@H](Cc2ccc(O)cc2)NC(=O)CCSSC[C@@H](C(=O)N2CCC[C@H]2c2ccccn2)NC(=O)[C@H](CC(N)=O)NC(=O)[C@H](CCC(N)=O)NC1=O ([Mpa]YIQNC-X1; disulfide 1-6)	> 1000	< 8	80	0.83
CC[C@H](C)[C@@H]1NC(=O)[C@H](Cc2ccc(O)cc2)NC(=O)CCSSC[C@@H](C(=O)N2CCC[C@@H]2C)NC(=O)[C@H](CC(N)=O)NC(=O)[C@H](CCC(N)=O)NC1=O ([Mpa]YIQNC-X2; disulfide 1-6)	> 1000	< 8	84	0.6
CC[C@H](C)[C@@H]1NC(=O)[C@H](Cc2ccc(O)cc2)NC(=O)CCSSC[C@@H](C(=O)N2CCC[C@H]2COc2ccccc2)NC(=O)[C@H](CC(N)=O)NC(=O)[C@H](CCC(N)=O)NC1=O ([Mpa]YIQNC-X3; disulfide 1-6)	> 1000	123	52	194
CC[C@H](C)[C@@H]1NC(=O)[C@H](Cc2ccc(O)cc2)NC(=O)CCSSC[C@@H](C(=O)N2CCC[C@H]2COC)NC(=O)[C@H](CC(N)=O)NC(=O)[C@H](CCC(N)=O)NC1=O ([Mpa]YIQNC-X4; disulfide 1-6)	> 1000	< 8	91	0.44
CC[C@H](C)[C@@H]1NC(=O)[C@H](Cc2ccc(O)cc2)NC(=O)CCSSC[C@@H](C(=O)N2CCC[C@H]2CNc2ccccc2)NC(=O)[C@H](CC(N)=O)NC(=O)[C@H](CCC(N)=O)NC1=O ([Mpa]YIQNC-X5; disulfide 1-6)	> 1000	40	76	0.77
CC[C@H](C)[C@@H]1NC(=O)[C@H](Cc2ccc(O)cc2)NC(=O)CCSSC[C@@H](C(=O)N2CCC[C@H]2c2nnc(C)o2)NC(=O)[C@H](CC(N)=O)NC(=O)[C@H](CCC(N)=O)NC1=O ([Mpa]YIQNC-X6; disulfide 1-6)	> 1000	< 8	77	0.6
CC[C@H](C)[C@@H]1NC(=O)[C@H](Cc2ccc(O)cc2)NC(=O)CCSSC[C@@H](C(=O)N2CCC[C@H]2CCc2ccccc2)NC(=O)[C@H](CC(N)=O)NC(=O)[C@H](CCC(N)=O)NC1=O ([Mpa]YIQNC-X8; disulfide 1-6)	> 1000	153	59	5.2
CC[C@H](C)[C@@H]1NC(=O)[C@H](Cc2ccc(O)cc2)NC(=O)CCSSC[C@@H](C(=O)N2CCC[C@H]2C(=O)N(C)CCC(C)C)NC(=O)[C@H](CC(N)=O)NC(=O)[C@H](CCC(N)=O)NC1=O ([Mpa]YIQNCP-X7; disulfide 1-6)	> 1000	25.5	94	1.8
CC[C@H](C)[C@@H]1NC(=O)[C@H](Cc2ccc(O)cc2)NC(=O)CCSSC[C@@H](C(=O)N2CCC[C@H]2C(=O)N2CCC(N3CCCC3)CC2)NC(=O)[C@H](CC(N)=O)NC(=O)[C@H](CCC(N)=O)NC1=O ([Mpa]YIQNCP-X9; disulfide 1-6)	> 1000		98	6.8
CC[C@H](C)[C@@H]1NC(=O)[C@H](Cc2ccc(O)cc2)NC(=O)CCSSC[C@@H](C(=O)N2CCC[C@H]2C(=O)N2CCCN(C)CC2)NC(=O)[C@H](CC(N)=O)NC(=O)[C@H](CCC(N)=O)NC1=O ([Mpa]YIQNCP-X10; disulfide 1-6)	> 1000		98	3.6
CC[C@H](C)[C@@H]1NC(=O)[C@H](Cc2ccc(O)cc2)NC(=O)[C@@H](N)CSSC[C@@H](C(=O)N2CCC[C@H]2C(=O)N[C@@H](CC(C)C)C(=O)NCC(N)=O)NC(=O)[C@H](CC(N)=O)NC(=O)[C@H](CCC(N)=O)NC1=O [OXYTOCIN]		30	102	
